Results as given in patent US5985835A, “Desmopressin for nocturia, incontinence and enuresis” (priority 1997, dated 1999).
Like-named read-outs stand apart in the source and are kept apart here.

Assays:
Type in all cases: in vivo, human
[1] = tested on: elderly persons with increased nocturnal diuresis; experiment: Pilot study of desmopressin treatment during 48 hours in elderly persons with increased nocturnal diuresis; details: desmopressin treatment on two successive days
Protocol: ADH levels were studied in a group of elderly persons who had increased nocturnal diuresis. The levels generally were very low and a pilot study was done to determine the effect of desmopressin treatment during a period of 48 hours. Their nocturnal diuresis had decreased during desmopressin treatment on two successive days. After an evaluation of this study the participants were invited to take part in a two-month treatment with desmopressin ([…]®) 40 μg, given as an intranasal aerosol at 20.00 h. The tests consisted of 7 men (aged 72±4 years) and 14 women (aged 73±6 years). No changes in their way of life and no restriction in fluid intake was prescribed. The study was carried out after one and two months of treatment and one month after the treatment.

[2] = tested on: elderly persons with increased nocturnal diuresis and decreased ADH secretion; details: for Diuresis-day: 08-20 h; for Diuresis-night: 20-08 h
Protocol: They had no cardiac or renal disease or diabetes nor were they receiving diuretics. […] Intravenous specimens for the determination of ADH and NAP were frozen at […]. Plasma ADH was measured as arginine vasopressin by radioimmunoassay after extraction with ethanol. The reference range for plasma ADH was 1-5 pmol 1^-1 with an interassay variability of 15.1% at 0.9 pmol 1^-1 and 6.3% at 1.25 pmol 1^-1. Their nocturnal diuresis had decreased during desmopressin treatment on two successive days. After an evaluation of this study the participants were invited to take part in a two-month treatment with desmopressin ([…]®) 40 μg, given as an intranasal aerosol at 20.00 h. […] No changes in their way of life and no restriction in fluid intake was prescribed. The study was carried out after one and two months of treatment and one month after the treatment. […] Mean values of diuresis and micturitions for the 12-hour periods were calculated (Table 2). At these times also a questionnaire with 12 questions about general wellbeing and sleep was filled in (Table 1). The statistical method used a mean value ± standard deviation. The paired numerical data were analyzed with the 2-sided Student's t-test. Non-numerical data were analyzed with the x'-test.

[3] = tested on: patients 60-74 years of age with increased nocturnal frequency due to nocturnal polyuria
Protocol: This example provides efficacy and safety data for oral desmopressin in the treatment of increased frequency due to nocturnal polyuria in the elderly. The study started with a run-in week to establish baseline. An open dose titration, one week each of 0.1 mg, 0.2 mg and 0.4 mg, was performed and followed by a wash-out of 1-2 weeks. Then followed the double-blind, placebo controlled, cross-over part of the study using the dose selected in the dose titration. Placebo and active treatment were given for 14 days each in a randomized order. […] The diagnosis and main criteria for inclusion was a healthy adult patient between 60-74 years of age suffering from increased nocturnal frequency (≥2 nocturnal voids) and a nocturnal urinary output ≥0.9 ml/min. The desmopressin used for the study was […]®, 0.1 mg and 0.2 mg tablets. […] Study duration, including run-in and wash-out periods, was 9 weeks. The criteria for evaluation were: 1. Efficacy: the change in nocturnal diuresis (ml/min), nocturnal micturition episodes and 24-hour diuresis. 2. Safety: changes from baseline in blood pressure, S-sodium, ankle circumference and bodyweight. Incidence of adverse events. The efficacy endpoints during the double blind part of the study were subjected to statistical analysis with an ANOVA model. Sequence effect was tested with the within mean square in the ANOVA. The residuals obtained were plotted against predicted values, normal plots were also produced. The plots were examined for relationship between variance and mean non-normality. Shapiro-Wilks test was performed to assist in these assessments. The difference in effect is presented in 95% confidence intervals for least square means, placebo versus desmopressin. All tests performed used a significance level of α=5%.

[4] = men, 1 month of 40 μg intranasal
[5] = men, 2 months of 40 μg intranasal
[6] = men, 3 months (one month after treatment)
[7] = women, 1 month of 40 μg intranasal
[8] = women, 2 months of 40 μg intranasal
[9] = women, 3 months (one month after treatment)
[10] = oral tablets, titrated dose 0.1-0.4 mg, 14 days, statistically significant

NC(=O)CC[C@@H]1NC(=O)[C@H](Cc2ccccc2)NC(=O)[C@H](Cc2ccc(O)cc2)NC(=O)CCSSC[C@@H](C(=O)N2CCC[C@H]2C(=O)N[C@H](CCCN=C(N)N)C(=O)NCC(N)=O)NC(=O)[C@H](CC(N)=O)NC1=O [Desmopressin, 1-deamino-8-D-arginine vasopressin]
Nocturnal diuresis [1]: decreased | Number of women who reduced nocturnal diuresis by less than 400 ml ([2]; after one month): 9 women | Number of women who reduced nocturnal diuresis by less than 400 ml ([2]; after two months): 7 women | Total 24-hour diuresis ([2]; during the study): more or less unchanged | Decrease in average diuresis during the night, women versus men ([2]; during the treatment): twice as large in women as in men | Diuresis during the daytime ([2]; during treatment): changed insignificantly | Body weight ([2]; in vivo): did not change | Potassium in serum ([2]; in vivo): did not change | Sodium in serum ([2]; in vivo): did not change | Diuresis-day/night ([2]; men, 0 (before treatment)): 0.67 ± 0.20 | No. of micturitions - night ([2]; men, 0 (before treatment)): 4.3 ± 1.2 | Diuresis-day ([2]; men, 0 (before treatment), mean ± SD): 511 ± 85 mL | Diuresis-night ([2]; men, 0 (before treatment)): 763 ± 42 mL | Diuresis-day Deviation from initial value % ([2]; men, 1 month): -9% | Diuresis-day/night ([2]; men, 1 month): 0.83 ± 0.28 | Diuresis-night Deviation from initial value % ([2]; men, 1 month): -21% | No. of micturitions - night ([2]; men, 1 month): 3.8 ± 1.7 | Diuresis-day [2, 4]: 465 ± 72 mL | Diuresis-night [2, 4]: 603 ± 178 mL | Diuresis-day Deviation from initial value % ([2]; men, 2 months): 2% | Diuresis-day/night ([2]; men, 2 months): 0.91 ± 0.29 | Diuresis-night Deviation from initial value % ([2]; men, 2 months): -20% | No. of micturitions - night ([2]; men, 2 months): 4.5 ± 2.0 | Diuresis-day [2, 5]: 524 ± 117 mL | Diuresis-night [2, 5]: 612 ± 174 mL | Diuresis-day Deviation from initial value % [2, 6]: -14% | Diuresis-day/night [2, 6]: 0.66 ± 0.26 | Diuresis-night Deviation from initial value % [2, 6]: -6% | No. of micturitions - night [2, 6]: 4.1 ± 1.6 | Diuresis-day [2, 6]: 441 ± 68 mL | Diuresis-night [2, 6]: 717 ± 168 mL | Reduction of nocturnal diuresis (all the men) ([2]; men, after both one and two months): less than 400 ml | Decrease in nocturnal diuresis from the initial value ([2]; men, after one month): 21% | Decrease in nocturnal diuresis from the initial value ([2]; men, after two months): 20% | Daytime diuresis ([2]; one month after treatment, both men and women): there remained a reduction | Number of nocturnal micturitions ([2]; women versus men): women were affected most positively | Diuresis-day/night ([2]; women, 0 (before treatment)): 0.84 ± 0.40 | Diuresis-day ([2]; women, 0 (before treatment)): 699 ± 368 mL | Diuresis-night ([2]; women, 0 (before treatment)): 892 ± 361 mL | Diuresis-day Deviation from initial value % ([2]; women, 1 month): 6% | Diuresis-day/night ([2]; women, 1 month): 1.46 ± 0.87 | Diuresis-night Deviation from initial value % ([2]; women, 1 month): -36% | Diuresis-day [2, 7]: 746 ± 368 mL | Diuresis-night [2, 7]: 570 ± 172 mL | Diuresis-day Deviation from initial value % ([2]; women, 2 months): -4% | Diuresis-day/night ([2]; women, 2 months): 1.14 ± 0.36 | Diuresis-night Deviation from initial value % ([2]; women, 2 months): -34% | Diuresis-day [2, 8]: 673 ± 257 mL | Diuresis-night [2, 8]: 592 mL | Diuresis-day Deviation from initial value % [2, 9]: -14% | Diuresis-day/night [2, 9]: 0.89 ± 0.36 | Diuresis-night Deviation from initial value % [2, 9]: -17% | Diuresis-day [2, 9]: 587 ± 173 mL | Diuresis-night [2, 9]: 739 ± 260 mL | Decrease in nocturnal diuresis from the initial value ([2]; women, after one month): 36% | Decrease in nocturnal diuresis from the initial value ([2]; women, after two months): 34% | Less nocturnal diuresis than initial value ([2]; women, one month after the last day of treatment): 17% | Tolerability ([3]; in vivo, po): well tolerated | Duration of sleep between voids compared to placebo ([3]; oral tablets, titrated dose 0.1-0.4 mg, 14 days): significantly longer | Nocturnal diuresis compared to placebo [3, 10]: lower | Nocturnal voids compared to placebo [3, 10]: fewer | Nocturnal symptoms ([3]; oral tablets, elderly population): significantly decreases
